Data as given in patent US20260199327A1, “PHARMACEUTICAL COMBINATION AND PHARMACEUTICAL COMPOSITION FOR TREATING CANCER” (CSPC ZHONGQI PHARMACEUTICAL TECHNOLOGY (SHIJIAZHUANG) CO., …, priority 2022, published 2026).
Where a name gives a salt, the structure may show the parent alone. Read-outs that look alike come from different tables or passages of the source. Marks after values point to notes of the source that are not given here. Each block holds one compound with its values, some of them ahead of it.

What was measured:
[1] = tested on: Huh-7 cells; experiment: Huh-7 tumor cell proliferation inhibition assay (CellTiter Glo); type: cell-based; details: Homo sapiens, 72 or 168 hours
Description: Huh-7 cell suspension was adjusted to 5×10^4/ml or 2×10^4/ml with DMEM+2 mM Glutamine+10% FBS medium. 100 μL of cell suspension was added per well to a 96-well cell culture plate, to give a final cell concentration of 5000 cells/well (72 hours) or 2000 cells/well (168 hours). The compound to be tested (compound of formula (B)) was dissolved in DMSO to give 10 mmol of stock solution. 200× final concentration of compound was prepared with stock solution and DMSO, and 3× serial gradient dilutions were prepared, then diluted 20-fold each with medium. Finally, 10 μL of the corresponding 10-fold solution was added per well for each cell, wherein each drug concentration was added in one well. […] After 72 or 168 hours of drug treatment, according to CTG instructions (CellTiter Glo), 100 μL of CTG solution that had been previously thawed and equilibrated to room temperature was added per well, mixed for 2 minutes using a microplate shaker, placed at room temperature for 10 minutes, and then chemiluminescent signal value was measured with EnSpire plate reader. Cell survival was calculated using formula: (Vsample−Vblank)/(Vvehicle control−Vblank)×100%, wherein Vsample is the reading of the drug treatment group, Vvehicle control is the average of the solvent control group, and Vblank is the average of the blank control wells. […]

[2] = biological target: FGFR4 (Homo sapiens, UniProt P22455); experiment: FGFR4 kinase activity inhibition experiment (Caliper mobility shift assay); type: biochemical
Chain of FGFR4 (P22455 22-802): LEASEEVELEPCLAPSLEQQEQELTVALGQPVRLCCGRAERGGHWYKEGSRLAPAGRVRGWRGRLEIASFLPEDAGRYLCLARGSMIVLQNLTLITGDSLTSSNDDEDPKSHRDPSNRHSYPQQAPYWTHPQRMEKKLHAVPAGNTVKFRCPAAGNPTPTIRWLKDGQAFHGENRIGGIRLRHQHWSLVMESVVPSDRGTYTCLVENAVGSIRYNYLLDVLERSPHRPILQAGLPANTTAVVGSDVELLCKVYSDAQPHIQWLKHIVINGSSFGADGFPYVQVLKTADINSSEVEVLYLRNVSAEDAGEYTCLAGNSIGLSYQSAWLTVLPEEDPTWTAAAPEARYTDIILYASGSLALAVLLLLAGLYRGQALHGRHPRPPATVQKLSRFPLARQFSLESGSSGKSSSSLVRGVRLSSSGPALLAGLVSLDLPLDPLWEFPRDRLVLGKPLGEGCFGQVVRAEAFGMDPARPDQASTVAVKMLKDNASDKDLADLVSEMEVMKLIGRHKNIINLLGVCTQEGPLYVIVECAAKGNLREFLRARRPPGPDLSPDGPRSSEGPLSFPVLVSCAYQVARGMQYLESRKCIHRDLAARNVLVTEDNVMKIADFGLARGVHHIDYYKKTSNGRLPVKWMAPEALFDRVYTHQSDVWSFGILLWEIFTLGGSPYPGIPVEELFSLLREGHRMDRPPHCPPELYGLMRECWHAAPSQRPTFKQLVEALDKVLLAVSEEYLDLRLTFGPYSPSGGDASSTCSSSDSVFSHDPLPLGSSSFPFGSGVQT
Description: FGFR4 protein kinase activity was determined using Caliper mobility shift assay. The compound was dissolved in DMSO and then diluted with kinase buffer, 5 μL of 5-fold final reaction concentration of compound (10% DMSO) was added to a 384-well plate. […] After incubation at 28° C. for 30-60 minutes, 25 μL of stop solution was added to stop the reaction. Conversion data was read on Caliper EZ Reader II (Caliper Life Sciences). The conversion rate was converted to inhibition rate (% inhibition=(max−sample conversion rate)/(max−min)*100), wherein max refers to the conversion rate of the DMSO control, and min refers to the conversion rate of enzyme-free control. Curve was plotted with compound concentration and inhibition rate on the horizontal and vertical coordinates respectively, and the curve was fitted and IC50 was calculated using XLFit excel add-in version 4.3.1 software.

[3] = tested on: Hep3B (human hepatocarcinoma cell line) xenograft; details: for growth of tumor (tumor weight) versus vehicle, in words / growth of xenograft tumor (tumor volume) versus vehicle, in words: at the test dose; for TV (mm^3) d14: d14, Mean ± SD; for TV (mm^3) d14 / Tumor Weight: n = 7; for TV (mm^3) d14 / T/C d14 (%) (relative tumor volume proliferation rate) / TGI d14 (%) (tumor growth inhibition rate) / Tumor Weight / Tumor Weight Inhibition Rate (%): palbociclib 50 mg/kg qd; for Tumor Weight / Tumor Weight Inhibition Rate (%): end of test; for Tumor Weight: Mean ± SD
From the text: 42 NU/NU mouse, female, 42-48 days old, weighing 22-26 g.
Hep3B cells were resuscitated and passaged in vitro to the desired number of cells. The cells were counted under a microscope, and diluted with serum-free medium and matrix gel (1:1) to adjust the number of tumor cells to approximately 5×10^7 cells/mL. The cell suspension was placed in an ice bath.
Hep3B cell suspension was withdrawn with a sterile syringe for inoculation into subcutaneous tissue in the axilla of the forelimb of NU/NU mice, with a volume of 0.1 mL/per mice, containing approximately 5.0×10^6 tumor cells, to prepare NU/NU mice Hep3B xenogratf model.
In the vehicle group, the solvents were administered at the same frequency and volume for 14 consecutive days.
4.3 Observation Criteria and Evaluation Criteria • (1) General state observation: all animals were observed once a day during the test period and the abnormalities in various parts of the body and the behavior change situations were recorded. • (2) Body weight: all animals were weighed once before testing and the appropriate body weight of animals were selected for testing. Animals were weighed once a day at a fixed time after initiation of administration for weight monitoring, and body weight statistics were consistent with tumor volume statistics. • (3) Death and moribund: time of death was recorded for dead animals, moribund animals were observed more frequently, and time of death was determined. • (4) Tumor Evaluation
After animal grouping, tumor length and short diameters were measured twice per week. • (1) Tumor volume: V=½×a×b^2 • (2) Relative tumor volume:
[formula] • (3) Relative tumor volume proliferation rate:
[formula] • (4) Tumor growth inhibition rate:
[formula] • Note: V: Tumor volume • a: tumor length; b: tumor width; RTV: relative tumor volume; TVnd: tumor volume on day n; TV0d: tumor volume on day 0; RTVxnd: mean relative tumor volume on day n; TVXn: mean tumor volume on day n in the administrated group; TVX0: mean tumor volume on day 0 in the administrated group; TVMn: mean tumor volume on day n in the solvent (model) group; TVM0: mean tumor volume on day 0 in the solvent (model) group. • (5) Tumor weight
At the end of the test, the animals were sacrificed by cervical dislocation, and a tumor was stripped and weighed.
Data were processed using SPSS 19.0 statistical software. Repeated Measure process analyzed tumor volume changes between groups with multiple measurements over time. Multivariate process compared differences in tumor volume between groups at each measurement. Difference in tumor weight between groups was analyzed by LSD method of One-way ANOVA.

[4] = tested on: Hep3B (human hepatocarcinoma cell line) xenograft; details: for Change Rate in Weight (%) / Number of Animals (Survived/Total): BALB/c Nude mice, gavage qd 16 days, palbociclib 50 mg/kg; for Change Rate in Weight (%) / Number of Animals (Survived/Total) / TV(mm3) d16 / T/C d16 (%) (relative tumor volume proliferation rate) / TGI d16 (%) (tumor growth inhibition rate) / Tumor Weight / Tumor Weight Inhibition Rate (%): compound of formula (B) 5 mg/kg, sorafenib tosylate 8 mg/kg; for growth of xenograft tumor (tumor volume) versus vehicle, in words / tumor growth (tumor weight) versus vehicle, in words: at the test dose; for TV(mm3) d16: d16, Mean ± SD; for TV(mm3) d16 / Tumor Weight: n = 6; for TV(mm3) d16 / T/C d16 (%) (relative tumor volume proliferation rate) / TGI d16 (%) (tumor growth inhibition rate) / Tumor Weight / Tumor Weight Inhibition Rate (%): palbociclib 50 mg/kg qd; for Tumor Weight / Tumor Weight Inhibition Rate (%): end of test; for Tumor Weight: Mean ± SD
Description: 36 BALB/c Nude mice, female, 18-20 g in body weight.
Compounds of formula (B), sorafenib tosylate, palbociclib.
Sorafenib tosylate/palbociclib: a solution of castor oil, anhydrous ethanol and ultrapure water in a volume ratio of 1:1:6.
In the solvent group, the solvents were administered at the same frequency and volume for 16 consecutive days.
4.3 Observation Criteria and Evaluation Criteria: Same as Example 2

[5] = patients taking sorafenib, N=2276; cited from earlier work
[6] = 638 patients, cited from earlier work
[7] = NU/NU mice, gavage qd 14 days, compound of formula (B) 5 mg/kg, lenvatinib mesylate 8 mg/kg, palbociclib 50 mg/kg
[8] = compound of formula (B) 5 mg/kg, lenvatinib mesylate 8 mg/kg
[9] = listed as compound of formula (B)
[10] = most common drug-related adverse events

- IC50 [1]: < 10 nM
- IC50 [2]: < 5 nM
- Change Rate in Weight (%) [3, 7]: −4.5%
- Change Rate in Weight (%) [4]: −12.0%
Compound: N#Cc1cnc(NC(=O)N2CCCc3cc(CN4CCN5CCC[C@H]5C4=O)c(C=O)nc32)cc1NC1CC1 [Compound of formula (B)]
- Number of Animals (Survived/Total) [3, 7]: 7/7
- growth of tumor (tumor weight) versus vehicle, in words [3]: significantly inhibited the growth of the xenograft tumor
- growth of xenograft tumor (tumor volume) versus vehicle, in words [3]: significantly inhibited the growth of the xenograft tumor
- TV (mm^3) d14 [3, 8]: 607.8 ± 277.1** mm^3
- T/C d14 (%) (relative tumor volume proliferation rate) [3, 8]: 55.8%
- TGI d14 (%) (tumor growth inhibition rate) [3, 8]: 49.1%
- Tumor Weight [3, 8]: 0.7481 ± 0.3692 g
- Tumor Weight Inhibition Rate (%) [3, 8]: 43.8%
- Number of Animals (Survived/Total) [4]: 6/6
- growth of xenograft tumor (tumor volume) versus vehicle, in words [4]: can significantly inhibit the growth of the xenograft tumor
- tumor growth (tumor weight) versus vehicle, in words [4]: can significantly inhibit tumor growth
- TV(mm3) d16 [4]: 608.1 ± 293.4 mm3
- T/C d16 (%) (relative tumor volume proliferation rate) [4]: 75.1%
- TGI d16 (%) (tumor growth inhibition rate) [4]: 44.5%
- T/C d16 (%) (relative tumor volume proliferation rate) [4, 9]: 84.5%
- TGI d16 (%) (tumor growth inhibition rate) [4, 9]: 30.9%
- tumor volume growth compared to model (vehicle) group at corresponding time points, in words ([4]; days as stated (d13-d16 alone; d3-d6, d10-d16 with sorafenib tosylate; d6-d16 with palbociclib)): can significantly inhibit tumor volume growth
- Tumor Weight [4]: 0.59 ± 0.34 g
- Tumor Weight Inhibition Rate (%) [4]: 46.4%
- Tumor Weight Inhibition Rate (%) [4, 9]: 27.8%

Compound: COc1cc2nccc(Oc3ccc(NC(=O)NC4CC4)c(Cl)c3)c2cc1C(N)=O [Lenvatinib Mesylate, 4-[3-chloro-4-(N′-cyclopropylureido)phenoxy]-7-methoxyquinoline-6-carboxamide mesylate]
- Number of Animals (Survived/Total) [3, 7]: 7/7
- growth of tumor (tumor weight) versus vehicle, in words [3]: significantly inhibited the growth of the xenograft tumor
- growth of xenograft tumor (tumor volume) versus vehicle, in words [3]: significantly inhibited the growth of the xenograft tumor
- TV (mm^3) d14 [3, 8]: 533.1 ± 212.6** mm^3
- TGI d14 (%) (tumor growth inhibition rate) [3, 8]: 57.4%
- Tumor Weight [3, 8]: 0.5600 ± 0.1923 g
- Tumor Weight Inhibition Rate (%) [3, 8]: 58.0%

- Change Rate in Weight (%) [4]: −24.7%
Compound: CC(=O)c1c(C)c2cnc(Nc3ccc(N4CCNCC4)cn3)nc2n(C2CCCC2)c1=O [Palbociclib, 6-acetyl-8-cyclopentyl-5-methyl-2-{[5-(piperazin-1-yl)pyridin-2-yl]amino}pyrido[2,3-d]pyrimidin-7 (8H)-one]
- Number of Animals (Survived/Total) [3, 7]: 7/7
- growth of tumor (tumor weight) versus vehicle, in words [3]: did not inhibit the growth of tumor
- growth of xenograft tumor (tumor volume) versus vehicle, in words [3]: failed to inhibit the growth of xenograft tumor
- TV (mm^3) d14 [3, 8]: 948.8 ± 361.2 mm^3
- T/C d14 (%) (relative tumor volume proliferation rate) [3, 8]: 95.8%
- TGI d14 (%) (tumor growth inhibition rate) [3, 8]: 11.0%
- Tumor Weight [3, 8]: 1.3047 ± 0.4823 g
- Tumor Weight Inhibition Rate (%) [3, 8]: 2.1%
- Number of Animals (Survived/Total) [4]: 6/6
- growth of xenograft tumor (tumor volume) versus vehicle, in words [4]: failed to inhibit the growth of xenograft tumor
- tumor growth (tumor weight) versus vehicle, in words [4]: failed to inhibit tumor growth
- TV(mm3) d16 [4]: 711.6 ± 313.8 mm3
- T/C d16 (%) (relative tumor volume proliferation rate) [4]: 91.3%
- TGI d16 (%) (tumor growth inhibition rate) [4]: 31.4%
- T/C d16 (%) (relative tumor volume proliferation rate) ([4]; listed as palbociclib): 75.1%
- TGI d16 (%) (tumor growth inhibition rate) ([4]; listed as palbociclib): 44.5%
- Tumor Weight [4]: 0.89 ± 0.30 g
- Tumor Weight Inhibition Rate (%) [4]: 19.1%
- Tumor Weight Inhibition Rate (%) ([4]; listed as palbociclib): 46.4%

- Change Rate in Weight (%) [4]: −17.5%
Compound: CNC(=O)c1cc(Oc2ccc(NC(=O)Nc3ccc(Cl)c(C(F)(F)F)c3)cc2)ccn1.Cc1ccc(S(=O)(=O)O)cc1 [Sorafenib Tosylate, 4-{4-[3-(4-chloro-3-trifluoromethyl-phenyl)-acylurea]-phenoxy}-pyridine-2-carboxylic acid methylamide-4-toluenesulfonate]
- growth of xenograft tumor (tumor volume) versus vehicle, in words [4]: failed to inhibit the growth of xenograft tumor
- tumor growth (tumor weight) versus vehicle, in words [4]: failed to inhibit tumor growth
- TV(mm3) d16 [4]: 717.2 ± 222.7 mm3
- T/C d16 (%) (relative tumor volume proliferation rate) [4]: 84.5%
- TGI d16 (%) (tumor growth inhibition rate) [4]: 30.9%
- T/C d16 (%) (relative tumor volume proliferation rate) ([4]; listed as sorafenib tosylate): 91.3%
- TGI d16 (%) (tumor growth inhibition rate) ([4]; listed as sorafenib tosylate): 31.4%
- Tumor Weight [4]: 0.79 ± 0.23 g
- Tumor Weight Inhibition Rate (%) [4]: 27.8%
- Tumor Weight Inhibition Rate (%) ([4]; listed as sorafenib tosylate): 19.1%

Compound: CNC(=O)c1cc(Oc2ccc(NC(=O)Nc3ccc(Cl)c(C(F)(F)F)c3)cc2)ccn1 [sorafenib]
- incidence of congestive heart failure [5]: 1.9%
- incidence of CTC (version V2.0) Grade 3 drug-related adverse events [6]: 37%
- incidence of CTC (version V2.0) Grade 4 drug-related adverse events [6]: 3%
- diarrhea [6, 10]: 37%
- hand and foot skin reactions [6, 10]: 35%
- malaise [6, 10]: 33%
- rash [6, 10]: 38%
